From patent US7538193B2, “NO-modified hemoglobins and uses therefor” (Duke University, priority 1995, dated 2009)

Experiments:
Sprague-Dawley rat = assay: Mean arterial blood pressure in anesthetized rats after femoral vein bolus (Examples 5, 6); format: in vivo; conditions: for blood pressure response: bolus into femoral vein, 2-200 nmol/kg
Text: Rats were anesthetized by intraperitoneal injection of pentobarbital and the femoral arteries and veins accessed by local cut down. The artery was then cannulated and the blood pressure monitored continuously using a Viggo Spectramed pressure transducer attached to a Gould recorder. An IBM PC (DATA Q Codas) was used for data acquisition.

[1] = Endogenous SNO-Hb and Hb(FeII)NO in rat blood by photolysis-chemiluminescence; format: in vivo; conditions: 45 minutes after infusion of 50 mg/kg
Text: A highly sensitive photolysis-chemiluminescence methodology was employed, which had been used for measuring RSNOs (S-nitrosothiols) in biological systems (Gaston, B., et al., Proc. Natl. Acad. Sci. USA 90:10957-10961 (1993); Stamler, J. S., et al., Proc. Natl. Acad. Sci USA 89:7674-7677 (1992)). The method involves photolytic liberation of NO from the thiol, which is then detected in a chemiluminesence spectrometer by reaction with ozone. […]
Blood was obtained from the left ventricle (arterial) and jugular vein (venous) of anesthetized Sprague-Dawley rats. […] In 24 rats, Hb samples were divided in two aliquots which were then treated or not treated with 10-fold excess HgCl2 over protein concentration as measured by the method of Bradford. […] Under these conditions, any nitrite present was converted to S-nitrosoglutathione, which was then measured by photolysis-chemiluminescence (detection limit ˜1 nM). SNO-Hb was present in all arterial samples, and levels determined by this method (286±33 nM) were virtually identical to and not statistically different from those shown in Table 2. […]
A highly sensitive photolysis-chemiluminescence methodology was employed. […] The method involves photolytic liberation of NO from the thiol, which is then detected in a chemiluminesence spectrometer by reaction with ozone. […]

rabbit aortic ring = assay: Vessel ring bioassay of SNO-Hb preparations (Examples 4, 13); format: cell-based; conditions: for effect of added glutathione on the dose-response: glutathione 100 ∥M in bioassay chambers (FIG. 4B); for vasoactivity in vascular ring bioassay: no added thiol (FIG. 4A)
Protocol: Details of the vessel ring bioassay have been published (Stamler, J. S., et al., Proc. Natl. Acad. Sci. USA 89:444-448 (1992)). SNO-Hb(FeII)O2 preparations were synthesized with 10-fold excess S-nitrosocysteine (CYSNO) over Hb(FeII)O2 protein (2% borate, 0.5 mM EDTA, ˜15 min incubation), after which desalting was performed across Sephadex G-25 columns. CYSNO was synthesized in 0.5 N HCl, 0.5 mM EDTA and then neutralized (1:1) in 1 M phosphate buffer containing 0.5 mM EDTA. […] The latter was synthesized by treatment of Hb(FeII)O2 with excess ferricyanide, followed by desalting across G-25 columns. SNO-Hb concentrations were verified spectroscopically and the S-nitrosothiol content was determined by the method of Saville (Stamler, J. S., et al., Proc. Natl. Acad. Sci USA 89:444-448 (1992)). The S—NO/tetramer stoichiometry for both SNO-Hb preparations was ˜2. Oxidation of the heme was undetectable by uv-spectrophotometric methods.
The aortic ring bioassay was performed as described in Example 4. The product of the reaction in which a ratio of 100:1 CYSNO/Hb tetramer was used, contains 2 SNOs as well as NO attached to the heme.

platelets = assay: ADP-induced aggregation of platelet-rich plasma; format: cell-based, human; conditions: 5 μM ADP
Protocol: Venous blood, anticoagulated with […] sodium citrate, was obtained from volunteers who had not consumed acetylsalicylic acid or any other platelet-active agent for at least 10 days. Platelet-rich plasma was prepared by centrifugation at 150×g for 10 minutes at 25° C. and was used within 2 hours of collection. Platelet counts were determined with a Coulter counter (model ZM) to be 1.5 to 3×10^8/ml.
Aliquots (0.3 ml) of platelets were incubated at 37° C. and stirred at 1000 rpm in a PAP-4 aggregometer (Biodata, Hatsboro, Pa.). Hemoglobins were preincubated with platelets for 10 min and aggregations were induced with 5 μM ADP. Aggregations were quantified by measuring the maximal rate and extent of change of light transmittance and are expressed as a normalized value relative to control aggregations performed in the absence of hemoglobin.

[2] = system: rat brain (caudatoputamen nucleus); assay: Brain blood flow in rats by H2 clearance (Example 12); format: in vivo; conditions: Example 12, FIG. 10
Protocol: SNO-Hb(FeII)O2, having a SNO/Hb ratio of 2, was prepared (from HbA0) by reaction with S-nitrosothiol. Rats breathing 21% O2 were injected (time 0) with Hbs prepared from HbA0 as indicated in FIG. 10 (open circles, SNO-Hb (100 nmol/kg); filled circles, SNO-Hb (1000 nmol/kg); filled squares, unmodified Hb (1000 nmol/kg)). Three rats were used per experiment. Blood flow was measured in brain using the H2 clearance method; microelectrodes were placed in the brain stereotactically. […] NO group release is promoted by local tissue hypoxia.

[3] = Decomposition and stability of SNO-Hb forms; format: physicochemical; conditions: as synthesized in Example 27
Protocol: Hbs in PBS (0.5 mM EDTA, pH 7.4) were incubated in air (oxy) or in a tonometer previously evacuated of O2 (deoxy). SNO-Hb(FeII)O2 decomposition was determined by the method of Saville (Saville, B., Analyst 83:670-672 (1958)). Spontaneous decomposition of SNO-Hb(FeII) was followed spectrophotometrically by formation of Hb(FeII)NO. Transnitrosation reactions with glutathione were performed by addition of 100-fold excess glutathione over protein (50 μM), immediate processing of the reaction mixture under anaerobic conditions followed by rapid TCA precipitation, and analysis of RSNO in the supernatant. Rates of NO group transfer were too rapid to measure accurately by the standard methods used in this study.

cGMP in platelets = assay: cGMP radioimmunoassay in platelet rich plasma; format: cell-based; conditions: 1, 10 and 100 μM; 5 min incubation
Protocol: Platelet rich plasma (PRP) was incubated with either hemoglobin, SNO-oxy Hb, or SNO-metHb for 5 min, after which the assay was terminated by the addition of 0.5 ml of ice cold trichloroacetic acid to 10%. Ether extractions of the supernatant were performed to remove trichloroacetic acid, and acetylation of samples with acetic anhydride was used to increase the sensitivity of the assay. Measurements of cyclic GMP were performed by radioimmunoassay (Stamler, J. et al., Circ. Res. 65:789-795 (1989)).

[4] = Transnitrosation between SNO-Hb and glutathione; format: biochemical; conditions: SNO-Hb 100 μM, glutathione 10 mM
Text: Data are presented as the amount of GSNO formed relative to the starting SNO-Hb concentration.
Thiol/SNO-Hb exchange, forming GSNO, was verified chemically (Stamler, J. S., et al., Proc. Natl. Acad. Sci. USA, 89:444-448 (1992)) following trichloroacetic acid precipitation (n=5).

| Compound | increase in blood pressure (Sprague-Dawley rat; 50 mg/kg) | depletion of SNO-Hb [1] | depletion of total Hb-NO [1] | effect of added glutathione on the dose-response (rabbit aortic ring) | vasoactivity in vascular ring bioassay (rabbit aortic ring) | blood pressure response (Sprague-Dawley rat) | inhibition of platelet aggregation (platelets; 10 nM to 100 μM preincubated 10 min) | duration of effects on blood flow in rat brain [2] | stability of the isolated preparation [3] | time for blood pressure to normalize after hypotensive response (Sprague-Dawley rat) | mean arterial pressure, post (Sprague-Dawley rat; after 200 nmol/kg (highest dose)) | mean arterial pressure, pre (Sprague-Dawley rat; before 200 nmol/kg infusion) | concentrations at which platelet aggregation is inhibited (platelets; preincubated 10 min) | concentration of cGMP measured (cGMP in platelets) | rate of NO group transfer to glutathione [4] |
| --- | --- | --- | --- | --- | --- | --- | --- | --- | --- | --- | --- | --- | --- | --- | --- |
| CNC(=N)NCCC[C@H](N)C(=O)O [L-NMMA, N^ω-monomethyl-L-arginine] | about 20 mm Hg | 82% | 50±18% |  |  |  |  |  |  |  |  |  |  |  |  |
| SNO-Hb(FeII)O2: S-nitroso-oxyhemoglobin made from oxyHb with excess S-nitrosocysteine |  |  |  | potentiates the dose-response | modest NO-like activity | did not exhibit hypertensive effects | some inhibition of platelet aggregation at the higher concentrations tested | over 20 minutes | quite stable |  |  |  |  |  |  |
| SNO-Hb(FeIII): S-nitroso-methemoglobin, S-nitrosylated methemoglobin |  |  |  | potentiates the dose-response | vasodilator | hypotensive responses |  |  | inherently unstable | 10 min | 74±6 mm Hg | 108±4 mm Hg | ≥ 1 µM | less than that of native Hb | more rapid |
